From patent US20220072098A1 (priority 2012, published 2022)
“Also recorded” adds a separate entry of the source.

Key:
[1] = Vesicle size and size distribution by dynamic light scattering (DLS); format: physicochemical
Description: Dynamic light scattering (DLS): Vesicle size and homogeneity was determined by DLS using HPPS-NIBS, light scattering apparatus (ALV-Laser, Langen, Germany) with the laser powered at 3 mW HE-Ne laser line (632.8 nm), at the Ilse Katz Institute for Nanoscale Science and Technology of BGU. Standard vesicle solutions were diluted 1:10 and loaded into a cuvette for light scattering measurements. The measurements were conducted at an angle of 173°, during 30-180 seconds, from different positions of the cell in order to avoid measurements of multiple scattering.
Zeta-potential measurements: Particle size and zeta potential were measured by using zeta potential and Particle size analyzer, ZetaPlus, (Brookhaven Instruments Corporation Ltd, NY, USA), in the range of 10-1000 nm, in the Chemistry Department of BGU. Vesicle solutions were diluted 1:10 in appropriate buffers and loaded into a 4 ml cuvette for light scattering measurements. The measurements were conducted at an angle of 90°, at 10 repeated measurements, and zeta potential was estimated as an average of 5 repeated readings.

AChE [2] = molecular target: T1, AChE (Homo sapiens, UniProt P22303); assay: Head group hydrolysis by AChE / choline esterases; format: biochemical
Description: FIG. 41: Hydrolysis of the ACh head group of bioamphiphiles GLH-20 and GLH-32 by AChE. Hydrolysis was measured by determining the pH change after addition of AChE to the incubation medium and was converted to change in the proton concentration.

AChE [3] = molecular target: T1, AChE; assay: Inhibition of ATC hydrolysis by AChE (Lineweaver-Burk analysis); format: biochemical; conditions: three concentrations; Km affected, Vmax not
Description: In order to compare between the inhibitory potentials of the two bolaamphiphiles, the rate of ATC hydrolysis was measured in presence of three concentrations of the GLH compounds and assessed the results by a Lineweaver-Burk analysis.

[4] = CF concentration in brain after i.v. injection of CF-loaded vesicles; format: in vivo, mice; conditions: 30 min
Description: Unless otherwise stated, animals were pretreated 15 min before the injection of the test material by pyridostigmine (o.5 mg/kg, i.m.) to inhibit peripheral ChE and thus, reduce vesicle decapsulation in the blood circulation before they enter the brain. The test material was injected i.v. into the tail vein in a volume of 100-200 µl per mouse.
The test material (either free CF or encapsulated CF) was injected into the tail vein of mice in a volume of up to 200 μl. The quantity of encapsulated CF was always determined prior to the administration and similar amounts of either encapsulated or free CF were injected. At 30 minutes after the injection, mice were anesthetized by Xylazine-Ketamine and blood was withdrawn through cardiac puncture, the mouse was perfused with 10 ml PBS and tissues were dissected out. The specimens were homogenized in PBS, deproteinated by 5% (final concentration) of tricholoro acetic acid (TCA), centrifuged and the supernatants were used for fluorescence measurements.
This experiment mesure accumulation of CF in the brain following i.v. administration. […] 30 min after the injection, the animals were sacrificed, perfused with 10 ml PBS and the brains removed and homogenized, deproteinized by 5% tricholoroacetic acid and fluorescence determined in the supernatants obtained following centrifugation. […]

[5] = Analgesia after i.v. injection of enkephalin, free or in vesicles; conditions: i.v. analgesic peptide (enkephalin)
[6] = Vesicle stability in storage / PBS (CF encapsulation, size)
Description: Vesicle stability: To determine vesicle stability, samples of carboxyfluorescein (CF)-loaded vesicles (see below method for loading vesicles with CF and determination of percent encapsulation) were incubated in PBS and percent encapsulation was determined at different times.
To determine the stability of vesicles with encapsulated protein, vesicle samples were incubated in PBS and the percent encapsulation was determined at different times. Stability was also determined by changes in the vesicle size (by DLS, as was described in previous sections) at various time points after vesicle preparation.
Vesicle stability was evaluated by measuring both changes in the concentration of encapsulated carboxyfluorescein (CF) and vesicles size as a function of time when incubated in PBS at room temperature.
Vesicles were prepared from each of the above formulations by the method of film hydration followed by sonication as described above, and percent CF encapsulation was determined at different times in storage at 4° C.

[7] = Preliminary toxicity studies of vesicles / bolas
[8] = Albumin-FITC fluorescence in cerebral cortex after i.v. injection; format: in vivo; conditions: mouse cerebral cortex fluorescence
Text: FIG. 5A: Fluorescence in mouse cerebral cortex after i.v. injection of albumin-FITC (non-encapsulated); FIG. 5B: Fluorescence in mouse cerebral cortex after i.v. injection of albumin-FITC encapsulated in GLH-20 vesicles.

[9] = GDNF encapsulation in bolaamphiphilic vesicles; format: physicochemical; conditions: 12.5 μg/ml GDNF (AlexaFluor-488); 10 mg/ml GLH-19 + GLH-20 vesicles
Description: The encapsulation efficiencies of trypsinogen and GDNF were assessed by first running the sample through a Sephadex G-50 column to remove non-encapsulated protein from the encapsulated protein. The fractions obtained from the column (generally 0.5 ml per fraction) were treated by Triton X-100 reduced form to avoid interference with the absorbance reading of the encapsulated material at 280 nm. The concentration of trypsinogen or GDNF proteins was measured by either UV absorbance at 280 nm, or when the quantities of the proteins were low, the proteins were labeled with AlexaFluor®-488 (see procedure for labeling the proteins below) and their quantities determined by fluorescence spectroscopy. Percent encapsulation was determined by dividing the area under the curve of the vesicle fractions by the total area under the curve, which was the sum of the area under the curve of the vesicle preparation and the area under the curve of the free protein. With the use of a calibration curve the concentrations in each were determined. […]
Since GDNF would be used at sub milligram range and its spectroscopic absorption could not be accurately measured at these concentrations, therefore, fluorescent tagging was investigated as a means of increasing the sensitivity of the determination of low quantities of the encapsulated protein. […]

[10] = system: SH-SYSY neuroblastoma cells; assay: GDNF activity: activation of AKT and MAPK; format: cell-based, human; conditions: 20 ng/ml hGDNF; free, encapsulated or added to empty vesicles; Western blot
Description: To determine the activity of GDNF, we measured the effect of 20 ng/ml hGDNF on the activation of the enzymes AKT and MAPK using SH-SYSY neuroblastoma cells (obtained from the ATTC). For this measurement, we plated the cells in 12 well plates coated with PEI at a density range of 3×10^5-6×10^5 cells/well 48 h prior to the bioassay. Cells were deprived of serum for 2.5 h, stimulated by the test material (plain medium as a control or free GDNF or encapsulated GDNF), washed once with ice-cold PBS and then lysed in […] sample buffer. The lysates were boiled, sonicated and centrifuged and then loaded onto 10% acrylamide gel for SDS-PAGE. After the electrophoresis, the samples were immune-blotted using antibodies against phospho-MAPK44/42 and against phospho-AKT.
The effect of the encapsulation process on GDNF activity was also examined by treating neuroblastoma cells that respond to GDNF by activation of kinases, particularly AKT and MAPK. […] AKT and MAPK are activated when they are phosphorylated and GDNF induces phosphorylation of these enzymes in SH-SY5Y neuroblastoma cells. If GDNF activity is impaired, it will not phosphorylate AKT and MAPK to pAKT and pMAPK, respectively. pAKT and pMAPK can be detected by specific antibodies for the phosphorylated forms of the enzymes on a Western blot.

[11] = Integrity of GDNF after encapsulation (SDS-PAGE); conditions: monomeric and dimeric forms
Description: Sodium dodecyl sulfate polyacrylamide gel electrophoresis (SDS-PAGE) was used to examine whether the encapsulation process affects the integrity of the encapsulated GDNF. The test samples were applied on a 5%−/15% SDS-polyacrylamide gel and electrophoresis was performed using a running buffer of 14.4 g glycine and 3 g Tris base per Liter with […]. The gels were then stained by Coomasie blue using the Bio-Safe Coomassie staining protocol and then destained for 30 min in water.

[12] = Trypsinogen encapsulation in bolaamphiphilic vesicles (Sephadex column, UV or fluorescence); format: physicochemical; conditions: 10 mg/ml GLH-19 + GLH-20 vesicles
[13] = formulated with CHOL and CHEMS at a ratio of 2:1:1
[14] = vesicles from the bolaamphiphile without additives

T1 sequence (P22303 32-614): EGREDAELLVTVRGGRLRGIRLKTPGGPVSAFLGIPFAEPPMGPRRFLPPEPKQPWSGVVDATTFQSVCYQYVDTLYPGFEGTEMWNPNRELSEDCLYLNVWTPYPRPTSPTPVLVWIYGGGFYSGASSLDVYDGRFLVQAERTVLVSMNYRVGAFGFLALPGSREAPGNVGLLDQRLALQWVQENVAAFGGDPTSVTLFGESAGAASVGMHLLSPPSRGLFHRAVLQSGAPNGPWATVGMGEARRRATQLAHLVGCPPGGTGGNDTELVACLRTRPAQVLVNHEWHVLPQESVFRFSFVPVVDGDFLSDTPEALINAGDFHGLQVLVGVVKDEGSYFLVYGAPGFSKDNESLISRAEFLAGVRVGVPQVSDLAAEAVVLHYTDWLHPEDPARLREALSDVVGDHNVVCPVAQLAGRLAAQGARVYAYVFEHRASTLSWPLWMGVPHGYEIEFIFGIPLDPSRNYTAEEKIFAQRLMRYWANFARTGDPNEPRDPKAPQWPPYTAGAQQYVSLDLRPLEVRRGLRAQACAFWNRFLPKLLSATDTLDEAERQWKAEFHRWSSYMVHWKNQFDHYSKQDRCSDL

CCCCCC(OC(=O)C[N+](C)(C)CCOC(C)=O)C(O)C/C=C\CCCCCCCC(=O)NCCCCCCCCCCOC(=O)CCCCCCC/C=C\CC(O)C(CCCCC)OC(=O)C[N+](C)(C)CCOC(C)=O.[Cl-].[Cl-] (stereo not drawn) [GLH-20]
Diameter (nm) [1, 13]: 120 nm
Weight (%) main peak [1, 13]: 100%
Diameter (nm) [1, 14]: 368 nm
Weight of Main peak (%) [1, 14]: 97%
hydrolysis of ACh head group by AChE / ChE (AChE [2]): hydrolyzed by choline esterases; also recorded: significantly faster
type of inhibition of ATC hydrolysis by AChE (AChE [3]): competitive inhibitors

carboxyfluorescein [free CF]
brain penetration of free CF [4]: hardly entered the brain
brain penetration of free CF ([4]; listed as Free CF): did not penetrate into the brain in significant amounts

free enkephalin: non-encapsulated enkephalin administered together with empty vesicles (YGGFL; Leu-enkephalin; UniProt P01210 230-234, looked up)
analgesia [5]: not

CCCCCC(OC(=O)C[N+](C)(C)CCOC(C)=O)C(O)C/C=C\CCCCCCCC(=O)NCCCCCCCCCCOC(=O)CCCCCCC/C=C\CC(O)C(CCCCC)OC(=O)C[N+](C)(C)CCOC(C)=O.[Cl-].[Cl-] (stereo not drawn) [GLH-20 (empty vesicles)]
vesicle stability in storage [6]: stable in storage

CCCCCC(OC(=O)CCCC(=O)OCC[N+](C)(C)C)C(O)C/C=C\CCCCCCCC(=O)NCCCCCCCCCCNC(=O)CCCCCCC/C=C\CC(O)C(CCCCC)OC(=O)CCCC(=O)OCC[N+](C)(C)C.[Cl-].[Cl-] (stereo not drawn) [GLH-19]
hydrolysis of ACh head group by AChE / ChE (AChE [2]): not hydrolyzed by AChE
toxicity relative to GLH-20 [7]: less toxic

un-encapsulated albumin-FITC: albumin-FITC (non-encapsulated)
brain accumulation of albumin-FITC [8]: little, if any, brain accumulation

CCCCCCCCC(OC(=O)C[N+](C)(C)CCOC(C)=O)C(O)CCCCCCCC(=O)OCCCCCCCCCCOC(=O)CCCCCCCC(O)C(CCCCCCCC)OC(=O)C[N+](C)(C)CCOC(C)=O.[Cl-].[Cl-] (stereo not drawn) [GLH-32]
Diameter (nm) [1, 13]: 134 nm
Weight (%) main peak [1, 13]: 100%
Diameter (nm) [1, 14]: 345 nm
Weight of Main peak (%) [1, 14]: 68%
hydrolysis of ACh head group by AChE / ChE (AChE [2]): hydrolyzed by AChE
type of inhibition of ATC hydrolysis by AChE (AChE [3]): competitive inhibitors

B1: GDNF: glial cell line-derived neurotrophic factor, human (protein, UniProt P39905 78-211, looked up)
Glial cell line-derived …: SPDKQMAVLPRRERNRQAAAANPENSRGKGRRGQRGKNRGCVLTAIHLNVTDLGLGYETKEELIFRYCSGSCDAAETTYDKILKNLSRNRRLVSDKVGQACCRPIAFDDDLSFLDDNLVYHILRKHSAKRCGCI
percent encapsulation [9]: 66%
phosphorylation of AKT and MAPK [10]: same degree of phosphorylation
GDNF integrity after encapsulation with sonication [11]: no fragmentation

B2: trypsinogen: model protein for GDNF, from bovine pancreas (protein, UniProt P00760 18-246, looked up)
pro-form: VDDDDKIVGGYTCGANTVPYQVSLNSGYHFCGGSLINSQWVVSAAHCYKSGIQVRLGEDNINVVEGNEQFISASKSIVHPSYNSNTLNNDIMLIKLKSAASLNSRVASISLPTSCASAGTQCLISGWGNTKSSGTSYPDVLKCLKAPILSDSSCKSAYPGQITSNMFCAGYLEGGKDSCQGDSGGPVVCSGKLQGIVSWGSGCAQKNKPGVYTKVCNYVSWIKQTIASN
modifications: pro-form
notes: model protein for GDNF, from bovine pancreas
percent encapsulation ([12]; 50 μg/ml trypsinogen (AlexaFluor-488)): 54%
percent encapsulation ([12]; 100 μg/ml trypsinogen (AlexaFluor-488)): 42%
